Test systems include 786-0; COLO 205; EKVX; HCT-116; HL-60; HOP-92; IGROV-1; M14; MDA-MB-231; NCI-H226; OVCAR-3; OVCAR-4; OVCAR-8; SF-268; SF-295; SK-MEL-28; SK-MEL-2; SN12C; UO-31; RPMI-8226.
Common to all, as to assay: NCI anticancer screen, dose series, 48 h

Each structure is given as a SMILES string.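 1) Cells in 96-well plates. 2) Compound, 48 h, 5 concentrations. 3) Linear interpolation between surrounding doses. 4) Unreached endpoint = highest concentration. GI50 marks 50% less growth.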 Active and inactive are the calls of the source. No stated cut-off is given here; in the data, active = GI50 up to about 1.1 µM and inactive = higher.

For `COC(=O)c1sc2c(Cl)c(Cl)sc2c1Cl`, the GI50 was 43.8 µM (inactive) with 786-0; > 100 µM (inactive) in the experiment on COLO 205; > 100 µM (inactive) with EKVX; > 100 µM (inactive) with HCT-116; > 100 µM (inactive) in the experiment on HL-60; > 100 µM (inactive) with HOP-92. For the same compound, the GI50 in the experiment with IGROV-1 was > 100 µM (inactive); in the experiment on M14, > 100 µM (inactive); with MDA-MB-231, > 100 µM (inactive); with NCI-H226 it was > 100 µM (inactive); in the experiment on OVCAR-3 it was 93.8 µM (inactive); in the experiment on OVCAR-4, > 100 µM (inactive). Moreover, the GI50 was > 100 µM (inactive) in the experiment with OVCAR-8; > 100 µM (inactive) with SF-268; 77.4 µM (inactive) with SF-295; > 100 µM (inactive) in the experiment with SK-MEL-28; > 100 µM (inactive) with SK-MEL-2; > 100 µM (inactive) with SN12C. In the experiment on UO-31, the GI50 was > 100 µM (inactive).
With `CCN(CC)CCC(=O)c1ccc(C)cc1`, the GI50 was 17.7 µM (inactive) with 786-0; 16.9 µM (inactive) in the experiment with COLO 205; 31.3 µM (inactive) in the experiment on EKVX; 16.3 µM (inactive) in the experiment on HCT-116; 24.5 µM (inactive) with HL-60; 18.2 µM (inactive) with HOP-92. In addition, the GI50 in the experiment on IGROV-1 is 17.7 µM (inactive); in the experiment with M14, 19.1 µM (inactive); in the experiment on MDA-MB-231, 14.9 µM (inactive); in the experiment with NCI-H226 it was 28.6 µM (inactive); in the experiment with OVCAR-3 it was 17.7 µM (inactive); in the experiment with OVCAR-4, 23.5 µM (inactive). In addition, the GI50 in the experiment with OVCAR-8 was 33.4 µM (inactive); in the experiment on RPMI-8226, 2.62 µM (inactive); with SF-268, > 100 µM (inactive); with SF-295, > 100 µM (inactive); with SK-MEL-28, 16.3 µM (inactive); in the experiment on SN12C it was 36.9 µM (inactive). Moreover, the GI50 in the experiment with UO-31 was 23 µM (inactive).
As for `COc1ccc(C2SC(C)C(=O)N2c2nc(-c3nc(-c4ccc(Cl)cc4)cs3)cs2)cc1` (stereo unspecified), the GI50 with 786-0 is > 100 µM (inactive); in the experiment with COLO 205 it was > 100 µM (inactive); with EKVX, > 100 µM (inactive); in the experiment on HCT-116, > 100 µM (inactive); in the experiment on HL-60, 94.4 µM (inactive); with HOP-92 it was > 100 µM (inactive). For the same compound, the GI50 in the experiment on IGROV-1, with M14, with MDA-MB-231, with NCI-H226, in the experiment on OVCAR-3 and in the experiment on OVCAR-4 was > 100 µM (inactive) in each case. Also, the GI50 is > 100 µM (inactive) in the experiment on OVCAR-8; > 100 µM (inactive) with RPMI-8226; > 100 µM (inactive) in the experiment on SF-268; > 100 µM (inactive) in the experiment on SF-295; > 10 µM (inactive) in the experiment on SK-MEL-28; > 100 µM (inactive) in the experiment with SN12C. In addition, the GI50 in the experiment on UO-31 is > 100 µM (inactive).
In the case of `CN(Cc1cnc2c(n1)C(N)=NN(N)N2)c1ccc(C(=O)NC(CCP(=O)(O)O)C(=O)O)cc1` (stereo unspecified), the GI50 in the experiment with 786-0 was 1.86 µM (inactive); in the experiment with COLO 205, > 31.5 µM (inactive); with EKVX, > 43.3 µM (inactive); with HCT-116 it was 0.45 µM (active); in the experiment on HL-60 it was 0.252 µM (active); in the experiment with HOP-92, > 100 µM (inactive). For the same compound, the GI50 in the experiment on IGROV-1 was 4.86 µM (inactive); with M14 it was 4.53 µM (inactive); with MDA-MB-231, > 100 µM (inactive); with NCI-H226 it was > 35.1 µM (inactive); in the experiment on OVCAR-3, > 100 µM (inactive); in the experiment on OVCAR-4 it was > 100 µM (inactive). Also, the GI50 in the experiment on OVCAR-8 was > 36.2 µM (inactive); with SF-268, 1.21 µM (inactive); in the experiment on SF-295 it was 3.08 µM (inactive); with SK-MEL-28, > 85.7 µM (inactive); with SK-MEL-2, > 100 µM (inactive); in the experiment with SN12C, > 63.2 µM (inactive). For the same compound, the GI50 with UO-31 is > 19.9 µM (inactive).
Consider `OC1(C2(c3ccc(Cl)cc3)CCCC2)c2ccccc2C2=NCCN21` (stereo unspecified), for which the GI50 is 14.3 µM (inactive) with 786-0; 10.3 µM (inactive) in the experiment on COLO 205; 16.9 µM (inactive) in the experiment on EKVX; 11.7 µM (inactive) in the experiment with HCT-116; 14.4 µM (inactive) in the experiment on HL-60; 13.4 µM (inactive) with HOP-92. In addition, the GI50 in the experiment on IGROV-1 is 12.9 µM (inactive); in the experiment on M14, 14.2 µM (inactive); in the experiment on MDA-MB-231 it was 14.8 µM (inactive); with NCI-H226, 17.1 µM (inactive); in the experiment on OVCAR-3 it was 16.4 µM (inactive); in the experiment with OVCAR-4, 12.9 µM (inactive). Further, the GI50 in the experiment with OVCAR-8 is 17.3 µM (inactive); with SF-268, 17.5 µM (inactive); in the experiment with SF-295 it was 16.5 µM (inactive); with SK-MEL-28, 15.3 µM (inactive); in the experiment on SN12C, 17.5 µM (inactive); with UO-31, 11.7 µM (inactive).
For `CC1CC[C@@]2(OC1)OC1CC3C4CCC5C[C@@H](OC6OC(CO)C(OC7OC(CO)C(O)C(OC8OC(CO)C(O)C(OC9OC(CO)C(O)C(O)C9O)C8O)C7OC7OC(CO)C(O)C(O)C7O)C(O)C6O)[C@H](O)C[C@]5(C)C4CC[C@]3(C)C1[C@@H]2C` (stereo partly specified), the GI50 in the experiment with 786-0, in the experiment with COLO 205, in the experiment with EKVX, in the experiment with HCT-116, in the experiment with HL-60 and in the experiment on HOP-92 was > 80.5 µM (inactive) each time. Besides, the GI50 in the experiment on M14, in the experiment on MDA-MB-231, in the experiment with NCI-H226, with OVCAR-3, in the experiment with OVCAR-4 and with OVCAR-8 was > 80.5 µM (inactive) in each case. Further, the GI50 in the experiment with SF-268, in the experiment on SF-295, in the experiment on SK-MEL-28 and in the experiment with SN12C was > 80.5 µM (inactive) in each case.
As to `CCOC(=O)CC1c2ccc(O)cc2OC(=O)C1c1ccc([N+](=O)[O-])cc1` (stereo unspecified), the GI50 in the experiment on 786-0 was 41.3 µM (inactive); in the experiment on COLO 205, 15.7 µM (inactive); in the experiment on EKVX, 39.7 µM (inactive); with HCT-116 it was 22.5 µM (inactive); in the experiment with HL-60, 34.1 µM (inactive); in the experiment on HOP-92 it was 20.4 µM (inactive). For the same compound, the GI50 in the experiment on IGROV-1 was 21.5 µM (inactive); with M14, 21 µM (inactive); with MDA-MB-231 it was 18.5 µM (inactive); in the experiment on NCI-H226 it was 14.2 µM (inactive); in the experiment with OVCAR-3, 28.8 µM (inactive); in the experiment on OVCAR-4, 27.7 µM (inactive). The GI50 is 29 µM (inactive) with OVCAR-8; 40 µM (inactive) in the experiment on SF-268; 38.4 µM (inactive) with SF-295; 38 µM (inactive) in the experiment with SK-MEL-28; 17 µM (inactive) with SK-MEL-2; 21.8 µM (inactive) in the experiment on SN12C.
Regarding `O=C1NC(O)c2ccccc2O1` (stereo unspecified), the GI50 in the experiment on 786-0, in the experiment on COLO 205, in the experiment with EKVX, in the experiment with HCT-116, in the experiment with HL-60 and with HOP-92 was > 100 µM (inactive) each time. For the same compound, the GI50 in the experiment with IGROV-1, with M14, in the experiment on MDA-MB-231, in the experiment on NCI-H226, with OVCAR-3 and with OVCAR-4 was > 100 µM (inactive) in each case. The GI50 in the experiment on OVCAR-8, in the experiment with SF-268, in the experiment on SF-295, in the experiment on SK-MEL-28, in the experiment with SK-MEL-2 and in the experiment on SN12C was > 100 µM (inactive) throughout. Also, the GI50 with UO-31 is > 100 µM (inactive).
`COC(=O)C(C)Sc1nc2cc(Cl)ccc2s1` (stereo unspecified): the GI50 in the experiment with 786-0, in the experiment with COLO 205, in the experiment with EKVX, with HCT-116, in the experiment with HOP-92 and in the experiment with IGROV-1 was > 100 µM (inactive) in each case. Besides, the GI50 in the experiment with M14, with MDA-MB-231, in the experiment on NCI-H226, in the experiment with OVCAR-3, in the experiment on OVCAR-4 and with OVCAR-8 was > 100 µM (inactive) each time. The GI50 with RPMI-8226, in the experiment with SF-268, in the experiment with SF-295, in the experiment with SK-MEL-28, in the experiment with SN12C and with UO-31 was > 100 µM (inactive) in each case.
Turning to `N#Cc1cc(-c2nc3c(F)cccc3s2)ccc1N`, the GI50 in the experiment on 786-0 is > 100 µM (inactive); in the experiment with COLO 205, 71.4 µM (inactive); in the experiment with EKVX it was < 0.01 µM (active); in the experiment on HCT-116, > 100 µM (inactive); in the experiment on HL-60, > 100 µM (inactive); in the experiment on HOP-92 it was 3.52 µM (inactive). The GI50 with IGROV-1 was 6.1 µM (inactive); in the experiment with M14, > 100 µM (inactive); in the experiment on MDA-MB-231, > 100 µM (inactive); in the experiment with NCI-H226 it was > 100 µM (inactive); in the experiment with OVCAR-3, 96.4 µM (inactive); in the experiment with OVCAR-4 it was > 100 µM (inactive). For the same compound, the GI50 in the experiment on OVCAR-8, in the experiment with RPMI-8226, with SF-268, with SF-295, in the experiment on SN12C and in the experiment with UO-31 was > 100 µM (inactive) throughout.
Turning to `CCOC(CN(C)C(=O)OCC(Cl)(Cl)Cl)OCC`, the GI50 with 786-0 is > 100 µM (inactive); in the experiment on COLO 205, 27.7 µM (inactive); in the experiment with EKVX it was > 100 µM (inactive); in the experiment on HCT-116, 41.5 µM (inactive); with HL-60, 21.6 µM (inactive); with HOP-92, 33.9 µM (inactive). Also, the GI50 in the experiment with IGROV-1 is > 100 µM (inactive); in the experiment with M14 it was 69 µM (inactive); with MDA-MB-231 it was 25.5 µM (inactive); in the experiment on NCI-H226 it was 54.6 µM (inactive); in the experiment with OVCAR-3 it was > 100 µM (inactive); with OVCAR-4, 77.1 µM (inactive). Also, the GI50 was > 100 µM (inactive) in the experiment on OVCAR-8; > 100 µM (inactive) in the experiment with SF-268; > 100 µM (inactive) in the experiment on SF-295; > 100 µM (inactive) in the experiment with SK-MEL-28; > 100 µM (inactive) in the experiment with SN12C; 27.6 µM (inactive) in the experiment on UO-31.

The record behind these values is ChEMBL document CHEMBL1201862, “PubChem BioAssay data set” (2004).
